Data reported in PubChem BioAssay AID248 (DTP/NCI, 2004).
Several values for one entry are separate records, joined by “and”; a condition that tells them apart may be missing. Equal entries are not always repeated. Toxic doses and inconclusive results are not listed. Cut-off read from the data, not from the text of the source: active = T/C of 150% or more; inactive = T/C below 125%.

Test system: L1210 leukemia ip in BDF1 mice, survival T/C
Test: NCI In Vivo Anticancer Drug Screen. Data for tumor model L1210 Leukemia (intraperitoneal) in B6D2F1 (BDF1) mice
Settings: endpoint: mean survival time, higher = longer survival
How it was run: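 In this screen, tumor-bearing mice given compound are compared to those given vehicle, and their survival values are reported as a treated-to-control quotient.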

[1] = dose: 100.0 mg/kg/injection, schedule: Q01DX009 (ip), vehicle: saline with Tween-80
[2] = dose: 100.0 mg/kg/injection, schedule: Q04DX003 (ip), vehicle: saline with Tween-80
[3] = dose: 200.0 mg/kg/injection, schedule: Q01DX009 (ip), vehicle: saline with Tween-80
[4] = dose: 200.0 mg/kg/injection, schedule: Q04DX003 (ip), vehicle: saline with Tween-80
[5] = dose: 400.0 mg/kg/injection, schedule: Q04DX003 (ip), vehicle: saline with Tween-80
[6] = dose: 50.0 mg/kg/injection, schedule: Q04DX003 (ip), vehicle: Klucel (hydroxypropylcellulose) (HPC)
[7] = dose: 100.0 mg/kg/injection, schedule: Q04DX003 (ip), vehicle: Klucel (hydroxypropylcellulose) (HPC)
[8] = dose: 200.0 mg/kg/injection, schedule: Q04DX003 (ip), vehicle: Klucel (hydroxypropylcellulose) (HPC)
[9] = dose: 400.0 mg/kg/injection, schedule: Q04DX003 (ip), vehicle: Klucel (hydroxypropylcellulose) (HPC)
[10] = dose: 100.0 mg/kg/injection, schedule: Q01DX009 (ip), vehicle: Klucel (hydroxypropylcellulose) (HPC)
[11] = dose: 200.0 mg/kg/injection, schedule: Q01DX009 (ip), vehicle: Klucel (hydroxypropylcellulose) (HPC)
[12] = dose: 400.0 mg/kg/injection, schedule: Q01DX009 (ip), vehicle: Klucel (hydroxypropylcellulose) (HPC)
[13] = dose: 100.0 mg/kg/injection, schedule: Q01DX001 (ip), vehicle: saline
[14] = dose: 200.0 mg/kg/injection, schedule: Q01DX001 (ip), vehicle: saline
[15] = dose: 400.0 mg/kg/injection, schedule: Q01DX001 (ip), vehicle: saline
[16] = dose: 50.0 mg/kg/injection, schedule: Q01DX009 (ip), vehicle: saline with Tween-80

Measured: T/C

CCOc1ccc(NC(=S)NC(=O)c2cccc([N+](=O)[O-])c2)cc1
inactive: dose: 100.0 mg/kg/injection, schedule: Q01DX001 (ip), vehicle: saline with Tween-80 93 % of control | [1] 92 % of control and 95 % of control | dose: 100.0 mg/kg/injection, schedule: Q04DX002 (ip), vehicle: saline with Tween-80 93 % of control and 95 % of control | [2] 98 % of control | dose: 200.0 mg/kg/injection, schedule: Q01DX001 (ip), vehicle: saline with Tween-80 101 % of control | [3] 92 % of control and 98 % of control | dose: 200.0 mg/kg/injection, schedule: Q04DX002 (ip), vehicle: saline with Tween-80 97 % of control and 107 % of control | [4] 96 % of control | dose: 400.0 mg/kg/injection, schedule: Q01DX001 (ip), vehicle: saline with Tween-80 102 % of control | dose: 400.0 mg/kg/injection, schedule: Q01DX009 (ip), vehicle: saline with Tween-80 97 % of control and 106 % of control | dose: 400.0 mg/kg/injection, schedule: Q04DX002 (ip), vehicle: saline with Tween-80 104 % of control and 107 % of control | [5] 91 % of control

S=C(S)Nc1ccccc1
inactive: dose: 25.0 mg/kg/injection, schedule: Q01DX001 (ip), vehicle: Klucel (hydroxypropylcellulose) (HPC) 95 % of control | dose: 50.0 mg/kg/injection, schedule: Q01DX001 (ip), vehicle: Klucel (hydroxypropylcellulose) (HPC) 92 % of control | dose: 100.0 mg/kg/injection, schedule: Q01DX001 (ip), vehicle: Klucel (hydroxypropylcellulose) (HPC) 94 % of control and 95 % of control

Cc1ccc(S(=O)(=O)N=Nc2c(O)[nH]c3cc(O)c(C(=O)O)cc23)cc1
inactive: [6] 103 % of control | [7] 92 % of control | [2] 100 % of control | [8] 92 % of control and 98 % of control | [4] 110 % of control | [9] 95 % of control | [5] 110 % of control

O=C(NCCCl)Nc1ccccc1-c1ccccc1
inactive: [7] 101 % of control | [8] 95 % of control | [9] 115 % of control

CC(C)C1C(=O)N2CCCC2C2(O)OC(C(=O)NCCc3ccccc3)(C(C)C)C(=O)N12 (stereo not given)
inactive: dose: 25.0 mg/kg/injection, schedule: Q04DX003 (ip), vehicle: alcohol 98 % of control | dose: 50.0 mg/kg/injection, schedule: Q04DX003 (ip), vehicle: alcohol 105 % of control and 100 % of control | dose: 100.0 mg/kg/injection, schedule: Q04DX003 (ip), vehicle: alcohol 100 % of control and 104 % of control | dose: 200.0 mg/kg/injection, schedule: Q04DX003 (ip), vehicle: alcohol 100 % of control and 102 % of control | dose: 400.0 mg/kg/injection, schedule: Q04DX003 (ip), vehicle: alcohol 93 % of control

c1ccc2c(c1)CCc1ccccc1CNC2
inactive: dose: 25.0 mg/kg/injection, schedule: Q04DX002 (ip), vehicle: Klucel (hydroxypropylcellulose) (HPC) 111 % of control | dose: 50.0 mg/kg/injection, schedule: Q04DX002 (ip), vehicle: Klucel (hydroxypropylcellulose) (HPC) 106 % of control

CC(C)(Br)C(=O)C(C)(C)Br
inactive: dose: 75.0 mg/kg/injection, schedule: Q01DX001 (ip), vehicle: saline 93 % of control | [10] 103 % of control | dose: 150.0 mg/kg/injection, schedule: Q01DX001 (ip), vehicle: saline 96 % of control | [11] 100 % of control | dose: 300.0 mg/kg/injection, schedule: Q01DX001 (ip), vehicle: saline 92 % of control | [12] 91 % of control

NS(=O)(=O)c1ccc(N=Cc2cc(Cl)cc(Cl)c2O)cc1
inactive: [10] 101 % of control | [11] 106 % of control | [12] 106 % of control

C[S+](C)(=O)CCCS(=O)(=O)[O-]
inactive: dose: 100.0 mg/kg/injection, schedule: Q04DX002 (ip), vehicle: saline 99 % of control | dose: 200.0 mg/kg/injection, schedule: Q04DX002 (ip), vehicle: saline 92 % of control | dose: 400.0 mg/kg/injection, schedule: Q04DX002 (ip), vehicle: saline 92 % of control

NC(=O)c1ccccn1
inactive: dose: 50.0 mg/kg/injection, schedule: Q01DX009 (ip), vehicle: Klucel (hydroxypropylcellulose) (HPC) 98 % of control | [6] 100 % of control | [10] 95 % of control | [7] 102 % of control | [11] 87 % of control | [8] 101 % of control and 102 % of control

CC(C)Oc1ccc(C(=O)NS(=O)(=O)c2ccc(N)cc2)cc1
inactive: [13] 101 % of control | dose: 100.0 mg/kg/injection, schedule: Q01DX009 (ip), vehicle: saline 91 % of control | [14] 101 % of control | dose: 200.0 mg/kg/injection, schedule: Q01DX009 (ip), vehicle: saline 103 % of control | [15] 100 % of control | dose: 400.0 mg/kg/injection, schedule: Q01DX009 (ip), vehicle: saline 100 % of control

CCC(C)CC=O (stereo not given)
inactive: dose: 50.0 mg/kg/injection, schedule: Q01DX001 (ip), vehicle: carboxymethylcellulose (CMC) 95 % of control | dose: 100.0 mg/kg/injection, schedule: Q01DX001 (ip), vehicle: carboxymethylcellulose (CMC) 98 % of control | dose: 200.0 mg/kg/injection, schedule: Q01DX001 (ip), vehicle: carboxymethylcellulose (CMC) 93 % of control | dose: 400.0 mg/kg/injection, schedule: Q01DX001 (ip), vehicle: carboxymethylcellulose (CMC) 101 % of control

Clc1nc2nc(Cl)n(Cl)c2nc1Cl
inactive: [16] 96 % of control | [1] 95 % of control | [2] 98 % of control | [3] 91 % of control | [4] 89 % of control | [5] 96 % of control

CCCCOCCOc1ccc(C(=O)O)cc1
inactive: dose: 100.0 mg/kg/injection, schedule: Q01DX001 (ip), vehicle: other 106 % of control | dose: 100.0 mg/kg/injection, schedule: Q04DX003 (ip), vehicle: saline 87 % of control | dose: 200.0 mg/kg/injection, schedule: Q01DX001 (ip), vehicle: other 94 % of control | dose: 200.0 mg/kg/injection, schedule: Q04DX003 (ip), vehicle: saline 94 % of control | dose: 400.0 mg/kg/injection, schedule: Q01DX001 (ip), vehicle: other 103 % of control | dose: 400.0 mg/kg/injection, schedule: Q04DX003 (ip), vehicle: saline 87 % of control

O=C(Nc1ccc(F)c([N+](=O)[O-])c1)N1CCN(c2ccccc2)CC1
inactive: [10] 101 % of control | [11] 98 % of control | [12] 107 % of control

O=C(NS(=O)(=O)c1ccc(Cl)cc1)c1ccccc1
inactive: [1] 94 % of control | dose: 100.0 mg/kg/injection, schedule: Q04DX003 (ip), vehicle: acetone 104 % of control | dose: 200.0 mg/kg/injection, schedule: Q04DX003 (ip), vehicle: acetone 107 % of control | dose: 400.0 mg/kg/injection, schedule: Q04DX003 (ip), vehicle: acetone 93 % of control

NC(Cc1cn(Cc2ccccc2)cn1)C(=O)O (stereo not given)
inactive: dose: 12.5 mg/kg/injection, schedule: Q04DX003 (ip), vehicle: saline 109 % of control | dose: 25.0 mg/kg/injection, schedule: Q04DX003 (ip), vehicle: saline 89 % of control | dose: 50.0 mg/kg/injection, schedule: Q04DX003 (ip), vehicle: saline 106 % of control

CCOC(=O)C1=NC(c2ccccc2)N(c2ccccc2)C1c1ccccc1 (stereo not given)
inactive: dose: 50.0 mg/kg/injection, schedule: Q01DX001 (ip), vehicle: saline 100 % of control | [13] 100 % of control | [14] 100 % of control | [15] 103 % of control

C=C1C(=O)O[C@H]2C[C@@H](C)[C@@H]3CC(=O)OC[C@@]3(C)CC12 (stereo not given in full)
inactive: dose: 25.0 mg/kg/injection, schedule: Q01DX009 (ip), vehicle: saline with Tween-80 108 % of control | dose: 25.0 mg/kg/injection, schedule: Q04DX003 (ip), vehicle: saline with Tween-80 99 % of control | [16] 105 % of control | dose: 50.0 mg/kg/injection, schedule: Q04DX003 (ip), vehicle: saline with Tween-80 105 % of control | [1] 101 % of control | [2] 93 % of control and 103 % of control

CNC(=O)NC1CCC(C)CC1 (stereo not given)
inactive: [13] 95 % of control | [14] 95 % of control | [15] 97 % of control
